What was measured:
Settings in all cases: 72 h
Caco-2 [1] = assay: cell viability relative to DMSO; higher = less toxic
Calu-3 [2] = assay: as above
HepG2 [3] = assay: as above
U2OS [4] = assay: as above
Vero E6 [5] = assay: as above
Caco-2 [6] = assay: relative viability EC50 (midpoint between 100% and the lowest measured viability); higher = less toxic
Calu-3 [7] = assay: as above
HepG2 [8] = assay: as above
U2OS [9] = assay: as above
Vero E6 [10] = assay: as above
Caco-2 [11] = assay: drug sensitivity score (DSS) for viability; higher = more toxic; extreme values may be limits of the assay
Calu-3 [12] = assay: as above
HepG2 [13] = assay: as above
U2OS [14] = assay: as above
Vero E6 [15] = assay: as above

Structure (SMILES) | cell viability (Caco-2 [1]; 1 nM) | cell viability (Caco-2 [1]; 10 nM) | cell viability (Caco-2 [1]; 100 nM) | cell viability (Caco-2 [1]; 1000 nM) | cell viability (Caco-2 [1]; 10000 nM) | cell viability (Calu-3 [2]; 1 nM) | cell viability (Calu-3 [2]; 10 nM) | cell viability (Calu-3 [2]; 100 nM) | cell viability (Calu-3 [2]; 1000 nM) | cell viability (Calu-3 [2]; 10000 nM) | cell viability (HepG2 [3]; 1 nM) | cell viability (HepG2 [3]; 10 nM) | cell viability (HepG2 [3]; 100 nM) | cell viability (HepG2 [3]; 1000 nM) | cell viability (HepG2 [3]; 10000 nM) | cell viability (U2OS [4]; 1 nM) | cell viability (U2OS [4]; 10 nM) | cell viability (U2OS [4]; 100 nM) | cell viability (U2OS [4]; 1000 nM) | cell viability (U2OS [4]; 10000 nM) | cell viability (Vero E6 [5]; 1 nM) | cell viability (Vero E6 [5]; 10 nM) | cell viability (Vero E6 [5]; 100 nM) | cell viability (Vero E6 [5]; 1000 nM) | cell viability (Vero E6 [5]; 10000 nM) | relative viability EC50 (Caco-2 [6]) | relative viability EC50 (Calu-3 [7]) | relative viability EC50 (HepG2 [8]) | relative viability EC50 (U2OS [9]) | relative viability EC50 (Vero E6 [10]) | drug sensitivity score (Caco-2 [11]) | drug sensitivity score (Calu-3 [12]) | drug sensitivity score (HepG2 [13]) | drug sensitivity score (U2OS [14]) | drug sensitivity score (Vero E6 [15])
CC[C@@]1(O)C(=O)OCc2c1cc1n(c2=O)Cc2cc3ccccc3nc2-1 [camptothecin] | 100% | 87.6% | 56.4% | 9.4% | 25.5% | 97.9% | 88.4% | 59.8% | 40.4% | 14.2% | 87.8% | 63.4% | 36.7% | 6% | 1.4% | 95.8% | 101% | 86.5% | 52% | 3.7% | 94.9% | 96.4% | 68.7% | 37.4% | 4% | 0.0939 µM | 0.159 µM | 0.027 µM | 0.891 µM | 0.324 µM | 21.3 | 17.1 | 28.8 | 11.3 | 15.9
COc1ccc(Nc2nccc(NCCO)n2)cc1 [cardiogenol-C] | 105% | 87.7% | 101% | 95.8% | 103% | 94.4% | 92.7% | 92.5% | 92.5% | 102% | 93.4% | 93.1% | 93.4% | 108% | 102% | 97.7% | 97.2% | 102% | 96.1% | 98.2% | 94.4% | 105% | 94.8% | 104% | 100% | > 10 µM | > 10 µM | > 10 µM | > 10 µM | > 10 µM | 0 | 0 | 0 | 0 | 0
CC(C)(C)NCC(O)COc1cccc2c1CCC(=O)N2 (stereo not given) [carteolol] | 100% | 96.1% | 95.8% | 98.1% | 95.7% | 94.8% | 109% | 104% | 92.9% | 104% | 101% | 87.8% | 100% | 101% | 105% | 98.5% | 101% | 95.9% | 97.2% | 93.9% | 96.3% | 95.9% | 98.4% | 99% | 98.3% | > 10 µM | > 10 µM | > 10 µM | > 10 µM | > 10 µM | 0 | 0 | 0 | 0 | 0
CO/N=C(\C(=O)N[C@@H]1C(=O)N2C(C(=O)[O-])=C(C[N+]3(C)CCCC3)CS[C@H]12)c1csc(N)n1 [cefepime] | 90.8% | 96.8% | 106% | 102% | 122% | 104% | 105% | 113% | 92.8% | 102% | 102% | 86% | 121% | 82.6% | 102% | 99.2% | 101% | 96.6% | 102% | 99.4% | 100% | 101% | 104% | 107% | 99.3% | > 10 µM | > 10 µM | > 10 µM | > 10 µM | > 10 µM | 0 | 0 | 0 | 0 | 0
CO/N=C(\C(=O)N[C@@H]1C(=O)N2C(C(=O)OCOC(=O)C(C)(C)C)=C(C)CS[C@H]12)c1csc(N)n1 [cefetamet-pivoxil] | 108% | 96.5% | 105% | 99.7% | 97.9% | 104% | 93.2% | 102% | 114% | 103% | 102% | 113% | 90.9% | 97.8% | 93% | 102% | 93.5% | 99.6% | 104% | 99.5% | 91.5% | 103% | 89.5% | 91.7% | 108% | > 10 µM | > 10 µM | > 10 µM | > 10 µM | > 10 µM | 0 | 0 | 0 | 0 | 0
CO[C@@]1(NC(=O)CSC[C@@H](N)C(=O)O)C(=O)N2C(C(=O)O)=C(CSc3nnnn3C)CS[C@@H]21 [cefminox] | 106% | 103% | 91.5% | 103% | 98.5% | 116% | 99.8% | 105% | 94.5% | 122% | 108% | 116% | 96.6% | 98.1% | 92.1% | 96.6% | 98.8% | 102% | 104% | 101% | 93.7% | 103% | 99.3% | 104% | 97.8% | > 10 µM | > 10 µM | > 10 µM | > 10 µM | > 10 µM | 0 | 0 | 0 | 0 | 0
CCO/N=C(\C(=O)N[C@@H]1C(=O)N2C(C(=O)[O-])=C(Sc3nc(-c4cc[n+](C)cc4)cs3)CS[C@H]12)c1nsc(NP(=O)(O)O)n1 [ceftaroline-fosamil] | 94.2% | 101% | 89.4% | 105% | 93.2% | 116% | 109% | 98.4% | 106% | 98.6% | 116% | 95.2% | 105% | 101% | 104% | 103% | 106% | 99.5% | 107% | 102% | 106% | 99.6% | 107% | 97.9% | 102% | > 10 µM | > 10 µM | > 10 µM | > 10 µM | > 10 µM | 0 | 0 | 0 | 0 | 0
O=C(O)CCCc1ccc(N(CCCl)CCCl)cc1 [chlorambucil] | 94.9% | 90.6% | 98.2% | 91.8% | 90.2% | 93% | 102% | 94.5% | 101% | 97.6% | 103% | 100% | 104% | 101% | 83.9% | 104% | 99.7% | 101% | 97.3% | 105% | 102% | 102% | 100% | 98.2% | 97.9% | > 10 µM | > 10 µM | > 10 µM | > 10 µM | > 10 µM | 0 | 0 | 0.3 | 0 | 0
CC(C)(Oc1ccc(C2CC2(Cl)Cl)cc1)C(=O)O (stereo not given) [ciprofibrate] | 101% | 93.5% | 103% | 86.7% | 102% | 104% | 98.1% | 96.5% | 93.7% | 95.9% | 96.3% | 106% | 99.2% | 96.1% | 100% | 93.2% | 98.3% | 99.6% | 94.7% | 91.7% | 94.1% | 94.4% | 93.4% | 97.2% | 108% | > 10 µM | > 10 µM | > 10 µM | > 10 µM | > 10 µM | 0 | 0 | 0 | 0 | 0
CC(C)(C)CC(C)(C)c1ccc(O)c(Cc2ccc(Cl)cc2Cl)c1 [clofoctol] | 94.6% | 102% | 99.7% | 99.8% | 93.8% | 91.2% | 96.5% | 92.4% | 90.9% | 98.5% | 109% | 98% | 113% | 96.2% | 98.5% | 99.4% | 103% | 102% | 103% | 96.9% | 107% | 101% | 102% | 99.8% | 102% | > 10 µM | > 10 µM | > 10 µM | > 10 µM | > 10 µM | 0 | 0 | 0 | 0 | 0
Cc1nc(C)c(Cl)c(O)c1Cl [clopidol] | 96.9% | 100% | 94.1% | 99.2% | 92.7% | 105% | 94.2% | 93.6% | 101% | 102% | 100% | 99.9% | 104% | 99.2% | 116% | 98.3% | 96.2% | 92.4% | 97.7% | 92.5% | 96.9% | 95.9% | 101% | 96.6% | 95.2% | > 10 µM | > 10 µM | > 10 µM | > 10 µM | > 10 µM | 0 | 0 | 0 | 0 | 0
Cc1nc2c([nH]1)-c1ccccc1N(C(=O)c1ccc(NC(=O)c3ccccc3-c3ccccc3)cc1)CC2 [conivaptan] | 97.5% | 94.3% | 91.2% | 102% | 91.7% | 102% | 106% | 105% | 94.1% | 96.6% | 97.9% | 97.1% | 101% | 93.6% | 101% | 101% | 103% | 96.3% | 104% | 97.6% | 97.9% | 100% | 97.3% | 89.4% | 100% | > 10 µM | > 10 µM | > 10 µM | > 10 µM | > 10 µM | 0 | 0 | 0 | 0 | 0
CN1CCC(=C2c3ccccc3C=Cc3ccccc32)CC1 [cyproheptadine] | 106% | 96.4% | 99.7% | 90.3% | 90.3% | 101% | 97.2% | 91.3% | 106% | 101% | 88.7% | 90.1% | 116% | 103% | 86.6% | 97.6% | 97.4% | 92.1% | 100% | 96.9% | 98.8% | 99.5% | 97.3% | 86.1% | 79.3% | > 10 µM | > 10 µM | > 10 µM | > 10 µM | > 10 µM | 0 | 0 | 0 | 0 | 1.8
CC(C)(C)c1nc(-c2cccc(NS(=O)(=O)c3c(F)cccc3F)c2F)c(-c2ccnc(N)n2)s1 [dabrafenib] | 103% | 97.1% | 98.2% | 77.8% | 101% | 88% | 93.8% | 106% | 99.3% | 124% | 96.4% | 90.9% | 78.3% | 65.9% | 30.4% | 102% | 93.2% | 107% | 95.3% | 102% | 96.5% | 104% | 103% | 79.8% | 102% | > 10 µM | > 10 µM | 0.49 µM | > 10 µM | > 10 µM | 0 | 0 | 9.8 | 0 | 0

From the supplement of paper PMC13380429
